The record followed here is US12091410B2, “Heterocyclic compound” (Takeda Pharmaceutical Company Limited, priority 2018, dated 2024).

This assay addresses T1, human orexin type 2 receptor (Homo sapiens, UniProt O43614).
T1 construct: expressed in transfected cells
T1 sequence (O43614 1-444): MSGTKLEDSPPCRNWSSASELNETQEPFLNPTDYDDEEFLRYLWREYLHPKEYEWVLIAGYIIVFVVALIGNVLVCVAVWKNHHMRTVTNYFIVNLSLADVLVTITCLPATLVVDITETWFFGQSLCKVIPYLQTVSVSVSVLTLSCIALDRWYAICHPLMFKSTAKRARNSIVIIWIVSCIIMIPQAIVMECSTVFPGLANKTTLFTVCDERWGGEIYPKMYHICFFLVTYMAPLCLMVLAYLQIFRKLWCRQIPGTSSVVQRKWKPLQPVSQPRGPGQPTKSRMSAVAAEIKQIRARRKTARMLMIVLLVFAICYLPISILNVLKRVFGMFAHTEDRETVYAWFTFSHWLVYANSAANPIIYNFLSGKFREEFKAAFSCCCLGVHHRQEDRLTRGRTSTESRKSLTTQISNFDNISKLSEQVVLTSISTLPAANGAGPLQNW
The assay is described as follows: Measurement of orexin type 2 receptor agonist activity (calcium fluorescence, Fluo-4 AM, CHO cells forcibly expressing human OX2 receptor). The assay is classed as cell-based. As to conditions: test compound 3 μM, DMSO = 0%, orexin A (human) 10 nM = 100%. From the text:
To obtain a cell clone stably expressing human orexin type 2 receptor, human orexin type 2 receptor cDNA was inserted into pcDNA3.1(+) plasmid vector (Invitrogen), and a plasmid DNA for expression of human orexin type 2 receptor (pcDNA3.1(+)/hOX2R) was cloned. The plasmid DNA was introduced into CHO-dhfr cell by an electroporation method, and human orexin type 2 receptor expressing clone cells were obtained by limiting dilution method by using G418 drug resistance as a selection marker.
CHO cells forcibly expressing human OX2 receptor were seeded in each well of 384 well black transparent bottom plate (BD Falcon) at 7,500 cells/well, and cultured for one day in a 5% CO2 incubator at 37° C. After removal of the medium in the cell plate, assay buffer A containing a calcium indicator (HBSS (Thermo Fisher Scientific), 20 mM HEPES (Thermo Fisher Scientific), 0.1% BSA (Sigma-Aldrich), 2.5 μg/mL Fluo-4 AM (DOJINDO Chemical), 0.08% Pluronic F127 (DOJINDO Chemical), 1.25 mM probenecid (DOJINDO Chemical)) was added at 30 μL/well. The plate was stood for 30 min in a 5% CO2 incubator at 37° C., and further stood at room temperature for 30 min. A test compound prepared by diluting with assay buffer B (HBSS, 20 mM HEPES, 0.1% BSA) was added at 10 μL/well, and the fluorescence value was measured by FDSSpCELL (Hamamatsu Photonics K. K.) every one sec for 1 min, and thereafter every two sec for 1 min 40 sec. The activity (%) of the test compound was calculated assuming that variation in the fluorescence value when DMSO was added instead of the test compound was 0%, and variation in the fluorescence value when orexin A (human) (PEPTIDE INSTITUTE, INC.) was added at the final concentration of 10 nM was 100%.
Take `CCc1cc2n(n1)[C@@H](COC1CCN(c3ncc(F)c(C)n3)CC1)[C@@H](NS(C)(=O)=O)CC2` (racemic) [Example 41, rac-N-[(6S,7R)-2-ethyl-7-({[1-(5-fluoro-4-methylpyrimidin-2-yl)piperidin-4-yl]oxy}methyl)-4,5,6,7-tetrahydropyrazolo[1,5-a]pyridin-6-yl]methanesulfonamide]: the “OX2R agonist activity (3 μM, %)” value turned out to be 80%.

Consider `CCc1cc2n(n1)[C@@H](COC1CCN(c3ccccn3)CC1)[C@@H](NS(C)(=O)=O)CC2` (racemic) [Example 42, rac-N-[(6S,7R)-2-ethyl-7-({[1-(pyridin-2-yl)piperidin-4-yl]oxy}methyl)-4,5,6,7-tetrahydropyrazolo[1,5-a]pyridin-6-yl]methanesulfonamide], for which the “OX2R agonist activity (3 μM, %)” value was determined as 80%. Then `CC(C)n1cc2c(n1)[C@@H](COC1CCN(c3ncc(F)cn3)CC1)[C@@H](NS(C)(=O)=O)CC2` (racemic) [Example 44, rac-N-[(6S,7S)-7-({[1-(5-fluoropyrimidin-2-yl)piperidin-4-yl]oxy}methyl)-2-(propan-2-yl)-4,5,6,7-tetrahydro-2H-indazol-6-yl]methanesulfonamide], with 94%; and `CCc1cc2n(n1)[C@@H](COC1CCN(c3ncccn3)CC1)[C@@H](NS(=O)(=O)CC)CC2` (racemic) [Example 45, rac-N-[(6S,7R)-2-ethyl-7-({[1-(pyrimidin-2-yl)piperidin-4-yl]oxy}methyl)-4,5,6,7-tetrahydropyrazolo[1,5-a]pyridin-6-yl]ethanesulfonamide], with 101%; and `CC(C)n1cc2c(n1)[C@@H](COC1CCN(c3ncccn3)CC1)[C@@H](NS(C)(=O)=O)CC2` (racemic) [Example 47, rac-N-[(6S,7S)-2-(propan-2-yl)-7-({[1-(pyrimidin-2-yl)piperidin-4-yl]oxy}methyl)-4,5,6,7-tetrahydro-2H-indazol-6-yl]methanesulfonamide], with 98%. With `CC(O)c1nn2c(c1Cl)CCC(NS(C)(=O)=O)C2COC1CCN(c2ncccn2)CC1` (racemic) [Example 50, N-[(6SR,7RS)-3-chloro-2-(1-hydroxyethyl)-7-({[1-(pyrimidin-2-yl)piperidin-4-yl]oxy}methyl)-4,5,6,7-tetrahydropyrazolo[1,5-a]pyridin-6-yl]methanesulfonamide] the figure was 92%; with `CCc1nn2c(c1Br)CC[C@H](NS(C)(=O)=O)[C@@H]2COC1CCN(c2ncc(F)cn2)CC1` (racemic) [Example 52, rac-N-[(6S,7R)-3-bromo-2-ethyl-7-({[1-(5-fluoropyrimidin-2-yl)piperidin-4-yl]oxy}methyl)-4,5,6,7-tetrahydropyrazolo[1,5-a]pyridin-6-yl]methanesulfonamide], 95%; with `Cc1ccc2c(n1)[C@@H](Cc1cccc(-c3ccccc3)c1)[C@@H](NS(C)(=O)=O)CC2` (racemic) [Example 62, rac-N-{(7S,8S)-8-[([1,1′-biphenyl]-3-yl)methyl]-2-methyl-5,6,7,8-tetrahydroquinolin-7-yl}methanesulfonamide], 72%. Then `CC(C)c1cc2n(n1)[C@@H](COC1CCN(c3ncc(F)cn3)CC1)[C@@H](NS(C)(=O)=O)CC2` (relative stereo) [Example 24, rel-N-[(6S,7R)-7-({[1-(5-fluoropyrimidin-2-yl)piperidin-4-yl]oxy}methyl)-2-(propan-2-yl)-4,5,6,7-tetrahydropyrazolo[1,5-a]pyridin-6-yl]methanesulfonamide], with 111%. Regarding `CCc1cc2n(n1)[C@@H](COC1CCN(c3ncc(F)cn3)CC1)[C@@H](NS(C)(=O)=O)CC2` (relative stereo) [Example 33, rel-N-[(6S,7R)-2-ethyl-7-({[1-(5-fluoropyrimidin-2-yl)piperidin-4-yl]oxy}methyl)-4,5,6,7-tetrahydropyrazolo[1,5-a]pyridin-6-yl]methanesulfonamide], the “OX2R agonist activity (3 μM, %)” value came to 91%. With `CC(C)c1cc2n(n1)[C@@H](COC1CCN(c3ncccn3)CC1)[C@@H](NS(C)(=O)=O)CC2` (relative stereo) [Example 56, rel-N-[(6S,7R)-2-(propan-2-yl)-7-({[1-(pyrimidin-2-yl)piperidin-4-yl]oxy}methyl)-4,5,6,7-tetrahydropyrazolo[1,5-a]pyridin-6-yl]methanesulfonamide] the figure was 100%; with `Cc1cn2c(n1)[C@@H](Cc1cccc(-c3cccc(F)c3)c1)[C@@H](NS(C)(=O)=O)CC2` (relative stereo) [Example 57, rel-N-{(7S,8S)-8-[(3′-fluoro[1,1′-biphenyl]-3-yl)methyl]-2-methyl-5,6,7,8-tetrahydroimidazo[1,2-a]pyridin-7-yl}methanesulfonamide], 94%; with `CCS(=O)(=O)N[C@H]1CCn2cc(C)nc2[C@H]1Cc1cccc(-c2cccc(F)c2)c1` (relative stereo) [Example 58, rel-N-{(7S,8S)-8-[(3′-fluoro[1,1′-biphenyl]-3-yl)methyl]-2-methyl-5,6,7,8-tetrahydroimidazo[1,2-a]pyridin-7-yl}ethanesulfonamide], 95%. Then `CCc1cc2n(n1)[C@@H](COC1CCN(c3ncccn3)CC1)[C@@H](NS(C)(=O)=O)CC2` (relative stereo) [Example 59, rel-N-[(6S,7R)-2-ethyl-7-({[1-(pyrimidin-2-yl)piperidin-4-yl]oxy}methyl)-4,5,6,7-tetrahydropyrazolo[1,5-a]pyridin-6-yl]methanesulfonamide], with 101%; and `Cc1cn2c(n1)C(COC1CCN(c3ncc(F)cn3)CC1)C(NC(=O)[C@@H]1CCCO1)CC2` (stereo in doubt) [Example 63, (2S)—N-[(7S*,8S*)-8-({[1-(5-fluoropyrimidin-2-yl)piperidin-4-yl]oxy}methyl)-2-methyl-5,6,7,8-tetrahydroimidazo[1,2-a]pyridin-7-yl]oxolane-2-carboxamide], with 92%.
